Test results from US9416111B2, “Substituted diazine and triazine spleen tyrosine kinease (Syk) inhibitors” (Merck Sharp & Dohme Corp., priority 2012, dated 2016).
Read-outs that look alike come from different tables or passages of the source.

Molecular target: T1, recombinant human GST-SYK (Homo sapiens, UniProt P43405)
T1 construct: purchased Carna Biosciences 08-176
Test: Homogeneous Time-Resolved Fluorescence (HTRF) assay for the recombinant human Syk enzyme
Assay type: biochemical
Conditions: GST-hSYK 5 pM, ATP 25 μM
Summary of the method: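 GST-hSYK (5 pM) was preincubated 10 min with inhibitor in 15 mM Tris-HCl pH 7.5, 0.01% tween 20, 2 mM DTT; reaction started with 250 nM biotinylated peptide, 5 mM Mg and 25 μM ATP, run 45 min at room temperature. Phosphopeptide detected by HTRF (Eu-anti-phosphotyrosine/SA-APC) after EDTA quench.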

[1] = IC50 rated in classes, read-out: rhSYK Activity

| SMILES | IC50 [1] [µM] | IC50 (values in text, read-out: IC50) [µM] |
| --- | --- | --- |
| Cc1cc(Nc2nccc(C(F)(F)F)n2)cc(-c2ccc(C(C)(C)O)nn2)c1 [Example 3.36, 2-[6-(3-methyl-5-{[4-(trifluoromethyl)pyrimidin-2-yl]amino}phenyl)pyridazin-3-yl]propan-2-ol] | 0.1 to 1 | – |
| CCOC(=O)CCc1cc(-c2cccc(Nc3nccc(C(F)(F)F)n3)c2)ncn1 [Example 3.44, ethyl 3-[6-(3-{[4-(trifluoromethyl)pyrimidin-2-yl]amino}phenyl)pyrimidin-4-yl]propanoate] | 1 to 10 | – |
| Cc1cc(Nc2nccc(C(F)(F)F)n2)cc(-c2cnc(N3CCN(CC(F)(F)F)CC3)nc2)c1 [Example 2.65, N-(3-methyl-5-{2-[4-(2,2,2-trifluoroethyl)piperazin-1-yl]pyrimidin-5-yl}phenyl)-4-(trifluoromethyl)pyrimidin-2-amine] | 0.1 to 1 | – |
| Cc1cc(Nc2nccc(C)n2)cc(-c2cc(CCC(=O)O)ncn2)c1 [Example 3.52, 3-(6-{3-methyl-5-[(4-methylpyrimidin-2-yl)amino]phenyl}pyrimidin-4-yl)propanoic acid] | 1 to 10 | – |
| Cc1cc(Nc2nccc(C(F)(F)F)n2)cc(-c2ccc(N3CCOCC3)nn2)c1 [Example 3.29, N-[3-methyl-5-(6-morpholin-4-ylpyridazin-3-yl)phenyl]-4-(trifluoromethyl)pyrimidin-2-amine] | 0.1 to 1 | – |
| CCOC(=O)CCc1cnc(-c2cc(C)cc(Nc3nccc(C)n3)c2)cn1 [Example 3.9, ethyl 3-(5-{3-methyl-5-[(4-methylpyrimidin-2-yl)amino]phenyl}pyrazin-2-yl)propanoate] | 0.1 to 1 | – |
| Cc1cc(Nc2nccc(C(F)(F)F)n2)cc(-c2cnc(OC3CCC(C(=O)O)CC3)nc2)c1 (centres unmarked) [Example 3.58, 4-{[5-(3-methyl-5-{[4-(trifluoromethyl)pyrimidin-2-yl]amino}phenyl)pyrimidin-2-yl]oxy}cyclohexanecarboxylic acid] | < 0.1 | – |
| Cc1cc(Nc2nccc(C(F)(F)F)n2)cc(-c2cnc(NCC(=O)O)nc2)c1 [Example 2.12, N-[5-(3-methyl-5-{[4-(trifluoromethyl)pyrimidin-2-yl]amino}phenyl)pyrimidin-2-yl]glycine] | < 0.1 | – |
| Cc1cc(Nc2nccc(C(F)F)n2)cc(-c2cnc([C@H](C)[C@H]3CC[C@H](C(=O)O)[C@H](C)C3)nc2)c1 (single isomer, unassigned) [Example 7.6] | < 0.1 | 0.0007 |
| Cc1cc(Nc2nccc(C(F)(F)F)n2)cc(-c2cnc(NC3CCNC3=O)nc2)c1 (centres unmarked) [Example 2.7, 3-{[5-(3-methyl-5-{[4-(trifluoromethyl)pyrimidin-2-yl]amino}phenyl)pyrimidin-2-yl]amino}pyrrolidin-2-one] | < 0.1 | – |
| Cc1cc(Nc2nccc(C(F)(F)F)n2)cc(-c2cnc(NCC(=O)N(C)C)nc2)c1 [Example 2.64, N,N-dimethyl-N~2~-[5-(3-methyl-5-{[4-(trifluoromethyl)pyrimidin-2-yl]amino}phenyl)pyrimidin-2-yl]glycinamide] | < 0.1 | – |
| Cc1cc(Nc2nccc(C(F)F)n2)cc(-c2cnc([C@@H](C)[C@H]3CC[C@H](C(=O)O)CC3)nc2)c1 (single isomer, unassigned) [Example 6.2, trans-4-{1-[5-(3-{[4-(difluoromethyl)pyrimidin-2-yl]amino}-5-methylphenyl)pyrimidin-2-yl]ethyl}cyclohexanecarboxylic acid] | < 0.1 | 0.0003 |
| Cc1cc(Nc2nccc(C(F)(F)F)n2)cc(-c2cnc(N3CCNC(=O)C3)nc2)c1 [Example 2.46, 4-[5-(3-methyl-5-{[4-(trifluoromethyl)pyrimidin-2-yl]amino}phenyl)pyrimidin-2-yl]piperazin-2-one] | < 0.1 | – |
| Cc1cc(Nc2nccc(C(F)F)n2)cc(-c2cnc([C@H](C)[C@H]3CC[C@H](C(=O)O)[C@H](C)C3)nc2)c1 (single isomer, unassigned) [Example 7.8] | < 0.1 | – |
| Cc1cc(Nc2nccc(C(F)(F)F)n2)cc(-c2cnc(N3CCS(=O)(=O)CC3)nc2)c1 [Example 2.20, N-{3-[2-(1,1-dioxidothiomorpholin-4-yl)pyrimidin-5-yl]-5-methylphenyl}-4-(trifluoromethyl)pyrimidin-2-amine] | < 0.1 | – |
| Cc1cc(Nc2nccc(C(F)(F)F)n2)cc(-c2cc(CCC(=O)O)ncn2)c1 [Example 3.50, 3-[6-(3-methyl-5-{[4-(trifluoromethyl)pyrimidin-2-yl]amino}phenyl)pyrimidin-4-yl]propanoic acid] | 0.1 to 1 | – |
| CNC(=O)CCNc1ncc(-c2cc(C)cc(Nc3nccc(C(F)(F)F)n3)c2)cn1 [Example 2.69, N-methyl-N~3~-[5-(3-methyl-5-{[4-(trifluoromethyl)pyrimidin-2-yl]amino}phenyl)pyrimidin-2-yl]-beta-alaninamide] | < 0.1 | – |
| Cc1cc(Nc2nccc(C(F)(F)F)n2)cc(-c2cncnc2)c1 [Example 1.1, N-(3-methyl-5-pyrimidin-5-ylphenyl)-4-(trifluoromethyl)pyrimidin-2-amine] | < 0.1 | 0.0662 |
| CCOC(=O)CCc1cncc(-c2cc(C)cc(Nc3nccc(C)n3)c2)n1 [Example 3.19, ethyl 3-(6-{3-methyl-5-[(4-methylpyrimidin-2-yl)amino]phenyl}pyrazin-2-yl)propanoate] | 0.1 to 1 | – |
| Cc1cc(Nc2nccc(C(F)(F)F)n2)cc(-c2ccc(N3CCC(C(N)=O)CC3)nn2)c1 [Example 3.31, 1-[6-(3-methyl-5-{[4-(trifluoromethyl)pyrimidin-2-yl]amino}phenyl)pyridazin-3-yl]piperidine-4-carboxamide] | < 0.1 | – |
| CCOC(=O)CCc1ccc(-c2cc(C)cc(Nc3nccc(C4CC4)n3)c2)nn1 [Example 3.42, ethyl 3-(6-{3-[(4-cyclopropylpyrimidin-2-yl)amino]-5-methylphenyl}pyridazin-3-yl)propanoate] | 0.1 to 1 | – |

Results, then the compound that gave them:

| IC50 [1] [µM] | IC50 (values in text, read-out: IC50) [µM] | SMILES |
| --- | --- | --- |
| < 0.1 | – | Cc1cc(Nc2nccc(C(F)(F)F)n2)cc(-c2cnc(NC(C)(C)CO)nc2)c1 [Example 2.57, 2-methyl-2-{[5-(3-methyl-5-{[4-(trifluoromethyl)pyrimidin-2-yl]amino}phenyl)pyrimidin-2-yl]amino}propan-1-ol] |
| < 0.1 | – | Cc1cc(Nc2nccc(C(F)(F)F)n2)cc(-c2cnc(N[C@@H]3CCC(=O)NC3)nc2)c1 [Example 2.72, (5R)-5-{[5-(3-methyl-5-{[4-(trifluoromethyl)pyrimidin-2-yl]amino}phenyl)pyrimidin-2-yl]amino}piperidin-2-one] |
| < 0.1 | – | CCN1CCN(c2ncc(-c3cc(C)cc(Nc4nccc(C(F)(F)F)n4)c3)cn2)CC1 [Example 2.55, N-{3-[2-(4-ethylpiperazin-1-yl)pyrimidin-5-yl]-5-methylphenyl}-4-{trifluoromethyl)pyrimidin-2-amine] |
| < 0.1 | – | CCOC(=O)CCc1cnc(-c2cc(C)cc(Nc3nccc(C4CC4)n3)c2)cn1 [Example 3.11, ethyl 3-(5-{3-[(4-cyclopropylpyrimidin-2-yl)amino]-5-methylphenyl}pyrazin-2-yl)propanoate] |
| < 0.1 | – | Cc1cc(Nc2nccc(C(F)(F)F)n2)cc(-c2cnc(N(C)CC(=O)O)nc2)c1 [Example 2.32, N-methyl-N-[5-(3-methyl-5-{[4-(trifluoromethyl)pyrimidin-2-yl]amino}phenyl)pyrimidin-2-yl]glycine] |
| < 0.1 | – | Cc1cc(Nc2nccc(C(F)(F)F)n2)cc(-c2ccc(OC(C)(C)C(=O)O)nn2)c1 [Example 3.34, 2-methyl-2-{[6-(3-methyl-5-{[4-(trifluoromethyl)pyrimidin-2-yl]amino}phenyl)pyridazin-3-yl]oxy}propanoic acid] |
| < 0.1 | – | Cc1cc(Nc2nccc(C(F)(F)F)n2)cc(-c2cnc(N3CCC(C(=O)O)CC3)nc2)c1 [Example 2.79, 1-[5-(3-methyl-5-{[4-(trifluoromethyl)pyrimidin-2-yl]amino}phenyl)pyrimidin-2-yl]piperidine-4-carboxylic acid] |
| < 0.1 | – | Cc1cc(Nc2nccc(C(F)(F)F)n2)cc(-c2cnc(NC(C)CO)nc2)c1 (centres unmarked) [Example 2.58, 2-{[5-(3-methyl-5-{[4-(trifluoromethyl)pyrimidin-2-yl]amino}phenyl)pyrimidin-2-yl]amino}propan-1-ol] |
| < 0.1 | – | Cc1cc(Nc2nccc(C(F)F)n2)cc(-c2cnc([C@H](C)[C@H]3CC[C@H](C(=O)O)[C@H](C)C3)nc2)c1 (single isomer, unassigned) [Example 7.3] |
| < 0.1 | – | CCC(CO)Nc1ncc(-c2cc(C)cc(Nc3nccc(C(F)(F)F)n3)c2)cn1 (centres unmarked) [Example 2.59, 2-{[5-(3-methyl-5-{[4-(trifluoromethyl)pyrimidin-2-yl]amino}phenyl)pyrimidin-2-yl]amino}butan-1-ol] |
| < 0.1 | – | Cc1cc(Nc2nccc(C(F)(F)F)n2)cc(-c2cnc(NC(C)(C)C(=O)O)nc2)c1 [Example 2.2, 2-methyl-N-[5-(3-methyl-5-{[4-(trifluoromethyl)pyrimidin-2-yl]amino}phenyl)pyrimidin-2-yl]alanine] |
| < 0.1 | – | Cc1cc(Nc2nccc(C(F)(F)F)n2)cc(-c2cnc(N3CC[C@H]3C(=O)O)nc2)c1 [Example 2.6, (2S)-l-[5-(3-methyl-5-{[4-(trifluoromethyl)pyrimidin-2-yl]amino}phenyl)pyrimidin-2-yl]azetidine-2-carboxylic acid] |
| < 0.1 | – | Cc1cc(Nc2nccc(C(F)(F)F)n2)cc(-c2cnc(NCc3cnn(C)c3)nc2)c1 [Example 2.17, N-[3-methyl-5-(2-{[(1-methyl-1H-pyrazol-4-yl)methyl]amino}pyrimidin-5-yl)phenyl]-4-(trifluoromethyl)pyrimidin-2-amine] |
| < 0.1 | – | CCC[C@H](Nc1ncc(-c2cc(C)cc(Nc3nccc(C(F)(F)F)n3)c2)cn1)C(=O)O [Example 2.14, N-[5-(3-methyl-5-{[4-(trifluoromethyl)pyrimidin-2-yl]amino}phenyl)pyrimidin-2-yl]-L-norvaline] |
